US20110028554A1, “PHARMACEUTICAL COMPOSITIONS COMPRISING DIIODOTHYRONINE AND THEIR THERAPEUTIC USE” (UNIVERSITE JOSEPH FOURIER, priority 2007, published 2011)

What was measured:
Assay type in all cases: in vivo
[1] = Indirect calorimetry (energy expenditure, respiratory quotient) in Wistar rats; conditions: low dosage 2.5 μg/100 g BW
Excerpt: Energy expenditure as well as the nature of substrate oxidized (carbohydrates or lipids) were investigated by indirect calorimetry. This principle is based on the determinations of CO2, release (VCO2) and O2 consumption (VO2) by each animal. It assumes that O2 is entirely involved in substrate oxidation in the respiratory chain (leading to water production) while CO2 release is related to substrate decarboxylation (in the Kreb's cycle). These measurements allow assessing energy expenditure (EE) and respiratory quotient ([…], RQ). EE represent the absolute energy dissipation during rest and activity. RQ is a relative measurement indicating the ratio of carbohydrate versus lipid involved in oxidative pathway. A ratio of 1.0 indicates exclusive carbohydrate oxidation while a ratio of 0.7 indicates exclusive lipid oxidation. Each value between these two extreme values indicates the relative proportion of each substrate (of note protein oxidation was not evaluated). As an example, RQ approaches 0.7 during fasting, indicating lipid oxidation, conversely after feeding RQ increases close to 1 indicating carbohydrate oxidation resulting from food intake and blood insulin rise. Likewise, animals fed high-carbohydrate diets have higher RQs than those fed high-fat diets.
The indirect calorimetry system (Panlab, Barcelona, Spain) consists of cages, pumps, flow controllers, valves, and analyzers. […]

[2] = system: muscle mitochondria; assay: Muscle mitochondrial oxygen consumption (JO2) of treated Wistar rats
Description: All measurements were performed using mitochondria (0.2 mg mitochondrial protein/ml) incubated with various substrates: • GM: glutamate/malate (5 mM/2.5 mM) • SR: succinate/rotenone (5 mM/5 μM), • GMS: glutamate/malate/succinate (5 mM/2.5 mM/5 mM), • Palm: palmitoyl carnitine (55 μM), • Octa: octanoyl carnitine (100 μM), • TMPD/AsC: TMPD/ascorbate (0.5 mM/0.5 mM), and • TMPD/AsC/DNP: TMPD/ascorbate/DNP (0.5 mM/0.5 mM/75 μM).
JO2 was recorded in the presence of the substrate and following the addition of 1 mM ADP (state 3).
The oligomycin was added to the mitochondrial suspension to determine the non-phosphorylating respiratory rate (state 4).
The major part of the liver and the red part of each quadriceps were rinsed, and chopped into isolation medium (250 mM sucrose, 20 mM Tris-HCl and 1 mM EGTA-Tris, pH 7.4). Nuclei and cell debris were removed, by centrifugation at 800 g for 10 min. Mitochondria were then isolated from the supernatant by spinning twice at 8,000 g for 10 minutes. The mitochondrial pellet was resuspended in 0.5 ml of isolation buffer and kept on ice. Mitochondrial protein was measured by the bicinchoninic acid method (Pierce, Rockford, Ill.). The final mitochondrial suspensions were maintained on ice and were used for measurements of oxygen consumption rate and reactive oxygen species (ROS) production.
The rate of mitochondrial oxygen consumption (JO2) was measured at 30° C. in an incubation chamber with a Clark-type O2 electrode filled with 2 ml of incubation medium (125 mM KCl, 10 mM Pi-Tris, 20 mM Tris-HCl, 0.1 mM EGTA, pH 7.2). All measurements were performed using mitochondria (1.0 or 0.2 mg mitochondrial protein/ml for liver and skeletal muscle) incubated either with various substrates: glutamate/malate (5 mM/2.5 mM) and succinate (5 mM), alone or in combination, palmitoyl carnitine (55 μM) and octanoyl carnitine (100 μM). For each substrate, JO2 was recorded in the presence of the substrate alone (State 2) and following the addition of 1 mM ADP (state 3). Oligomycin (1.25 μg/mg protein) was added to the mitochondrial suspension to determine the non-phosphorylating respiratory rate (state 4). The incubation medium was constantly stirred with a built-in electromagnetic stirrer and bar flea. The efficiency of the mitochondrial oxidative phosphorylation was assessed by the state 3/state 4 ratio which measures the degree of control imposed on oxidation by phosphorylation (respiratory control ratio, RCR).

[3] = system: liver mitochondria; assay: Oxidative phosphorylation efficiency (ATP/O) in liver mitochondria of treated Wistar rats; conditions: 3 weeks continuous subcutaneous 250 μg/kg, fatty acids (palmitoyl-, octanoyl-) and succinate as substrates
Description: Effect of 3,5-T2 on oxidative phosphorylation efficiency investigated in liver mitochondria of Wistar rats isolated after 3 weeks of continuous treatment administered subcutaneously (250 μg/kg).
FIGS. 20A, 20B, 20C and 20D represent the ratio between ATP synthesis (nmol/min/g prot) and liver mitochondrial oxygen consumption (nmol/min/g prot) (P/O) as a function of liver mitochondrial oxygen consumption.
All measurements were performed using mitochondria (1.0 mg mitochondrial protein/ml) incubated with various substrates: • GM: glutamate/malate (5 mM/2.5 mM) • Palm: palmitoyl carnitine (55 μM) • Octa: octanoyl carnitine (100 μM) and • Succ+Rot: succinate/rotenone (5 mM/5 μM)
ATP/O ratios with 5 mM glutamate/2.5 mM malate/5 mM succinate or octanoyl-carnitine (100 μM) as respiratory substrates were determined from the ATP synthesis rate (JATP) versus respiratory rate JO2 with an ADP regenerating system based, on hexokinase (EC 2.7.1.1) plus glucose. JATP and JO2 were measured as described above in a medium containing 125 mM KCl, 1 mM EGTA, 5 mM Tris-Pi, 20 mM Tris-HCl, 0.1% fat free BSA (pH 7.2). JATP was determined from glucose 6-phosphate formation in presence of 20 mM glucose, 1 mM MgCl2, and 125 μM ATP. JO2 and JATP were modulated by addition of increasing concentrations of hexokinase (Nogueira et al, J Bioenerg Biomemb., 34:55-66, 2002).

N[C@@H](Cc1cc(I)c(Oc2ccc(O)cc2)c(I)c1)C(=O)O [3,5-T2, 3,5-diiodothyronine]
Respiratory quotient (RQ) vs placebo [1]: lower than RQ with placebo treatment during the day and the first part of the night
Muscle mitochondrial respiration, non-phosphorylating (state 4), vs placebo ([2]; high dosage 25 μg/100 g BW): failed to substantially affect
Muscle mitochondrial respiration, phosphorylating (state 3), vs placebo ([2]; high dosage 25 μg/100 g BW): failed to substantially affect
Muscle mitochondrial respiration, non-phosphorylating (state 4), vs placebo ([2]; low dosage 2.5 μg/100 g BW): failed to substantially affect
Muscle mitochondrial respiration, phosphorylating (state 3), vs placebo ([2]; low dosage 2.5 μg/100 g BW): failed to substantially affect
Efficiency of oxidative phosphorylation (ATP/oxygen ratio) [3]: lowers the yield of ATP synthesis
